Experimental data reported in a melting point compilation (Tetko et al.; mined from patent text by program, amines drawn as free bases though some values may be those of a salt).

| Compound | melting point [°C] |
| --- | --- |
| COC1CC2(C)C(CCC3C4CCC(C(=O)COC(C)=O)C4(C)CC(=O)C32)CC1O (centres undefined) | 177 to 180 |
| Cn1nc(C(F)(F)F)n(-c2ccc(N)cc2Cl)c1=S | 145 to 147 |
| CC(=S)NC[C@H]1CN(c2ccc3c(c2)OC[C@@H](C)N3)C(=O)O1 | 74 to 77 |
| C=CCOc1ccccc1S(=O)(=O)NC(=O)Nc1nc(C)cc(C)n1 | 199 to 200 |
| CCCCCCN(C)c1ccc(C=C2SC(=S)N(CC(=O)NS(=O)(=O)c3ccccc3)C2=O)cc1 | 173 to 177 |
| OCCOCCn1c(NC2CCNCC2)nc2ccccc21 | 164 |
| CC1N=C(c2cccnc2)NC1=O (centres undefined) | 238 to 241 |
| CS(=O)(=O)NC1CCN(c2nc(N)nc(-c3cc(Cl)ccc3Cl)n2)C1 (centres undefined) | 102 to 107 |
| CCC1(CCOC2CCCCO2)C(=O)NNC1=O (centres undefined) | 188 to 191 |
| COc1cc(N2CCC(N3CCN(C)CC3)CC2)ccc1Nc1ncc2ccc(Br)n2n1 | 171 to 173 |
| Cn1nnc(-c2ccc3c(c2)c(C2=CCN(CCN4CCNC4=O)CC2)cn3-c2ccncc2)n1 | 177 to 178 |
| CCCCCCNC(=O)Oc1ccc2c(c1)CCCN2C | 50 |
| CN1Cc2c(-c3noc(CCl)n3)ncn2-c2cccc(Br)c2C1=O | 242 to 244 |
| CC(C)CNS(=O)(=O)c1ccccc1CCOS(C)(=O)=O | 106 to 108 |
| C=CCC1(C)Cc2cc(O)c(Cl)c(Cl)c2C1=O (centres undefined) | 180 |
| O=C1NC(c2ccc(Cl)cc2)c2ccccc2C1CCN1CCOCC1 (centres undefined) | 239 to 245 |
| CCCCCC1CCc2c(c(F)c(F)c3oc(C4CCC(CCC)CC4)cc23)O1 (centres undefined) | 101 |
| CN(C)c1cccc(OC(=O)NC2C(=O)N(CCC(C)(C)C)c3ccccc3N(c3ccccc3F)C2=O)c1 (centres undefined) | 160 to 161 |
| CCn1cc(C(=O)O)c(=O)c2cc(F)c(N3CCC(CN)C3)c(F)c21 (centres undefined) | 219 to 221 |
| CCCCc1nn(-c2ccc([N+](=O)[O-])cc2C(F)(F)F)c(=O)[nH]1 | 126 to 128 |
| Cc1nc(Nc2ccccc2)sc1C(=O)c1sc(Nc2ccccc2)nc1C | 194 to 196 |
| Cc1nc2c(N)cc(Br)cc2n1O | 257 to 258 |
| CC(=O)C(C)Nc1c(C)cc(C)c2nsnc12 (centres undefined) | 209 to 211 |
| O=C(O)c1cc(NCc2c(F)c(F)c(C(F)(F)F)c(F)c2F)ccc1OC(F)(F)F | 38 |
| CN(C)C=Cc1ccc([N+](=O)[O-])c(OCc2ccccc2)c1 | 111 to 114 |

| Compound | melting point [°C] |
| --- | --- |
| CC(C)(C(=O)c1ccc(Cl)cc1)n1ncn(-c2ccc(N3CCN(Cc4ccccc4)CC3)cc2)c1=O | 150 |
| CC(CC(=O)O)c1ccc(-c2ccc(F)cc2F)cc1 (centres undefined) | 109 to 110 |
| CCOc1cc(I)cc(OCC)c1OCC | 44 to 46 |
| O=C(NC1CCCCCCC1)NS(=O)(=O)c1ccc(CCNC(=O)N2CCCCC2=O)cc1 | 170 to 172 |
| CN(CC(=O)Nc1ccccc1)C(=O)CN1CCCC1=O | 145 to 146 |
| CC1CCC(=NN)c2ncc(C(N)=O)c(=O)n21 (centres undefined) | 248 to 250 |
| Cc1nc2n(c(=O)c1CCO)CCS2 | 149 |
| C[C@H]1N=C(c2ccccc2F)c2cc(N)ccc2N(C)C1=O | 224 to 226 |
| Cc1cccc(C)c1N1Cc2cnc(Nc3ccccc3)nc2N(c2cccc(CCN)c2)C1=O | 128 |
| Cc1c(Cl)cccc1NC(=O)Nc1ccc(-n2nc(C(F)(F)F)cc2C(F)(F)F)cc1 | 193 to 196 |
| Cc1c(-c2ccc(NC(=O)C(C)C)cc2)sc2c1c(=O)c(C(=O)C(C)C)cn2Cc1c(F)cccc1F | 219 to 222 |
| C=C(C)COc1c(C)c(CCC=O)c2c(c1C)CC(C)(C)O2 | 55.5 to 56 |
| CC(C)c1nc(C(C)C)c(CN2CCOCC2)c(-c2ccc(F)cc2)c1CO | 93.5 to 95.5 |
| Cc1cc2nc(NC(=O)C(C)(C)C)nc(Cl)c2[nH]1 | 162 to 163 |
| CCOC(=O)c1cn(-c2nc(N)c(Cl)cc2F)c2c(Cl)c(F)c(F)cc2c1=O | 186 to 189 |
| CCCn1nc2c(N)nc3ccccc3c2c1CCCCN1C(C)=NOC12CCCC2 | 101 to 105 |
| Cc1cc([N+](=O)[O-])cc(C(=O)NC(C)C)c1NC(=O)c1cc(C(F)(F)F)nn1-c1ncccc1Cl | 170 to 172 |
| O=S1(=O)c2cccc3cccc(c23)N1CCCN1CC=C(c2ccccc2)CC1 | 88 |
| CCC1(C(=O)O)c2ccccc2Oc2ccccc21 | 175 to 176 |
| O=C1NC(=O)c2ccc(N3CCCCC3)cc2/C1=C/Nc1ccc(CN2CCCCC2)cc1 | 211 to 212 |
| Cc1nnc(CN(C)C)n1-c1ccc(Br)cc1C(=O)c1ccccn1 | 127 to 128 |
| Cc1c(C(Cl)=Cc2ccc(C(F)(F)F)cc2)ccc2nc(N)nc(N)c12 | > 300 |
| CCOC(=O)/C=C/C1N(C(C)C)C(=O)c2ccccc2C1(O)c1ccc(F)cc1OC (centres undefined) | 178 to 179 |
| C#Cc1cn(C2CC(O)C(CO)O2)c(=O)[nH]c1=O (centres undefined) | 175 |
